Measurements from patent publication US9426996B2, “Use of benzoxaboroles as volatile antimicrobial agents on meats, plants, or plant parts” (AgroFresh Inc., priority 2013, dated 2016).

What was measured:
[1] = test system: Botrytis cinerea; assay: combination treatment with 1-MCP on white roses; format: in vivo; settings: 1-MCP 500 ppb v/v for 24 hours, no Compound A
Method: To evaluate a combination treatment of Compound A with 1-methylcyclopropene (1-MCP), an in vivo experiment is performed on white roses.
Five white roses are placed in an 800 mL jar containing 200 mL of a common commercial flower preservative. Three jars are then placed in a 117 L Rubbermaid storage box (Cat #2244). Two small fans are placed in opposite ends of the container to assist with the distribution of the two volatiles. A 500 parts per billion (ppb) volume per volume (v/v) 1-MCP treatment is applied (AgroFresh, Springhouse, Pa.) for 24 hours at 21° C. After the 1-MCP treatment is completed, the containers are vented, and Compound A powder is applied in a dose dependent manner to achieve a final headspace concentration of 0.2, 0.04, or 0.008 mg/L with a sublimation device (copper tube heated to 200° C. with fan flow at 0.5 L/min), with the end of the tube penetrating through a ½ inch side port in the container that is sealed immediately after the application. The flowers are incubated for three days at 21° C. After treatment, the flowers are evaluated for an additional seven days at 21° C. for disease incidence and severity of the flower petals.

[2] = test system: Alternaria alternata; assay: combination treatment with 1-MCP on broccoli; format: in vivo; parameters: scale not given here; settings: 1-MCP alone, 21° C.
Method: To evaluate a combination treatment of Compound A with 1-methylcyclopropene (1-MCP), an in vivo experiment is performed on broccoli.
Broccoli flowers are inoculated with 1×10^6 spores/mL of Alternaria alternata and then placed in a 117 L Rubbermaid storage box (Cat #2244) with two small fans placed in opposite ends of the container. A 500 ppb v/v 1-MCP treatment is applied (AgroFresh, Springhouse, Pa.) for 24 hours at 1° C. After completion of the 1-MCP treatment, broccoli florets are removed and placed in a 10.8-cup SnapWare airtight container (Model #109842). Compound A powder is applied in a dose dependent manner to achieve a final headspace concentration of 2 or 0.4 mg/L with a sublimation device (copper tube heated to 200° C. with fan flow at 0.5 L/min), with the end of the tube penetrating through a ½ inch side port in the container that is sealed immediately after the application. The florets are incubated for five days at 10° C. or three days at 21° C., then evaluated for an additional five days at 21° C. for disease incidence and severity.

[3] = test system: Alternaria alternata; assay: combination treatment with 1-MCP on tomato; format: in vivo; settings: tomatoes; 1-MCP 1000 ppb v/v alone
Method: Each tomato fruit is wounded three times and inoculated with 1×10^6 spores/mL of Alternaria alternata and then placed in a 117 L Rubbermaid storage box (Cat #2244) with two small fans placed in opposite ends of the container. A 1000 ppb v/v 1-MCP treatment is applied (AgroFresh, Springhouse, Pa.) for 24 hours at 21° C. After completion of the 1-MCP treatment, the tomatoes are removed and placed in a 10.8-cup […] airtight container (Model #109842). […] The tomatoes are incubated for three days at 21° C., then evaluated for an additional three days at 21° C. for disease incidence and severity. Results listed in Table 29 show good activity against Alternaria alternata infection of tomato.

[4] = test system: Alternaria alternata; assay: combination treatment with 1-MCP on broccoli; format: in vivo; parameters: scale not given here; settings: 1-MCP alone, 11 C.
[5] = test system: Botrytis cinerea; assay: in vitro inhibition assay for volatile antimicrobial compounds (12-well PDA plates); format: cell-based; settings: in vitro; volatile; 14 days at 4° C.
Method: 12-Well (7 milliliter (mL volume per well) microtiter plates are used for the in vitro inhibition assay for volatile antimicrobial compounds. A 3-mL volume of full-strength Potato Dextrose Agar (PDA) is added to each well. After cooling, 1 microliter (μL) of 1×10^6 per mL Botrytis cinerea spore suspension is spot pipetted to the center of the agar. For the first experiment, inoculated plates are allowed to germinate for 5 days at 4° C. For the second experiment, plates are inoculated immediately prior to volatile fungicide treatment. Small Whatman #1 filter disks (Cat. No. 1001-0155) are placed, in duplicate, on the underside of a polyethylene PCR plate sealing film.
The acetone is permitted to evaporate for 5 minutes. The headspace around the Botrytis cinerea inoculum is then sealed inside the well by the film with the adhering disk containing the fungicide. Plates are inverted, placed over the treated disks and sealed to prevent any of the chemical from flaking from the disk and falling onto the inoculated agar. After 14 days of storage at 4° C., cultures are evaluated for percent growth relative to control. Regardless of whether the spores had germinated for 5 days, or if the treatment commenced soon after inoculation of the plates (˜15 minutes); there is 100% control of the fungal pathogen down to 0.005 mg.
A total of 14 antimicrobial compounds are tested using the in vitro inhibition assay described in Example 1. All 14 compounds are applied to the Whatman disks, in duplicate, in a dose dependent manner (0.31 to 0.0006 mg/disk). […] Other compounds, such as Compound C, Compound D, and Compound E conferred 100% control down to 0.023, 0.04, and 0.08 mg/disk, respectively. Results of nine compounds are summarized in Table 2, where the other five compounds show no detected activity in the ranges tested. […]

[6] = test system: Botrytis cinerea; assay: in vivo volatile bioassay using strawberry
Method: In order to assess the in vivo activity of volatile antimicrobial compounds, a volatile bioassay is developed using strawberry. Two fruit are placed inside a 240 mL jar, with the calyx facing downwards. […] The acetone is permitted to evaporate for 5 minutes. The jars are then capped with the lids containing the fungicide, and placed for 5 days at 21° C. After storage, fruit are evaluated for incidence and severity of disease and appearance of phytotoxicity.

[7] = test system: Penicillium digitatum; assay: in vivo volatile bioassay using orange (Compound B, sublimation); settings: for Sporulation (mm) / Water soaked lesions (mm): oranges
Method: Two oranges per replicate are placed inside a clamshell. Three fresh wounds per orange are inoculated with 30 μL of 1×10^6 per mL Penicillium digitatum spore suspension. The clamshells are placed inside a 10.8-cup SnapWare airtight container (Model #109842). […] After storage, fruits are evaluated for disease incidence (mm diameter of the rot) and pathogen sporulation (mm diameter) on the surface of the fruits for an additional three days at 21° C., with results summarized in Table 20.

[8] = test system: Botrytis cinerea; assay: in vivo sublimation bioassay on fruit, 1 mg/L (Example 31); settings: for Incidence (%) / Severity (0-4): 1 mg/L sublimed, three day treatment plus three days at 21° C.
Method: (§1) To assess the in vivo activity of volatile antimicrobial Compounds A and B (FIG. 1) in fruit, a volatile bioassay is developed using apple, pear, orange, strawberry, grape and blueberry.
(§2) Two apples, 2 oranges, 2 pears, 8 strawberries, 16 grapes or 30 blueberries (per replicate, in duplicate) are placed in a clamshell with the stem end facing up for all fruits except for strawberry (stem end facing downwards). A fresh wound is inoculated with 20 μL 1×10^6 per mL Penicillium expansum spore suspension (apple and pear), 20 μL 1×10^6 per mL Penicillium digitatum spore suspension (orange), and 20 μL (strawberry and grape) or 10 μL (blueberry) of 1×10^6 per mL Botrytis cinerea spore suspension. The clamshells are placed inside a 117 L Rubbermaid storage box (Cat #2244) with lids closed. […] After treatment, fruits are held for an additional three days at 21° C., then evaluated for disease incidence (mm diameter of browning or water-soaked lesions) and pathogen sporulation (mm diameter) for apple, pear and orange, as well as Botrytis cinerea disease incidence (%) and severity (0 to 4) for strawberry, grape and blueberry, with results summarized in Table 30.

[9] = test system: Penicillium digitatum; assay: as above
Method: as §1, §2

[10] = test system: Penicillium expansum; assay: as above; settings: 1 mg/L sublimed, three day treatment plus three days at 21° C.
Method: as §1, §2

[11] = Orange, 1 mg/L sublimed, three day treatment plus three days at 21° C.

## CC1=CC1 [Compound 1-MCP, 1-methylcyclopropene, reference compound]
[1]
  Incidence (%): 33.3%
  Severity (0-4): 0.4
[2]
  Color Score: 1.79
  Severity: 0.61
[3]
  Diameter of the rot (mm): 13.6 mm
[4]
  Color Score: 1.50
  Severity: 0.18

## OB1OCc2ccccc21 [Compound B, 2-(hydroxymethyl)phenylboronic acid cyclic monoester]
[5]
  lowest rate with 100% control of Botrytis cinerea: 0.0078 mg/disk
[6]; 0.005 mg/disk, 5 days at 21° C.
  Percent (%) Incidence of Botrytis cinerea on Strawberry (in vivo): 100%
[6]; 0.01 mg/disk, 5 days at 21° C.
  Percent (%) Incidence of Botrytis cinerea on Strawberry (in vivo): 100%
[6]; 0.02 mg/disk, 5 days at 21° C.
  Percent (%) Incidence of Botrytis cinerea on Strawberry (in vivo): 100%
[6]; 0.04 mg/disk, 5 days at 21° C.
  Percent (%) Incidence of Botrytis cinerea on Strawberry (in vivo): 75%
[6]; 0.08 mg/disk, 5 days at 21° C.
  Percent (%) Incidence of Botrytis cinerea on Strawberry (in vivo): 50%
[6]; 0.16 mg/disk, 5 days at 21° C.
  Percent (%) Incidence of Botrytis cinerea on Strawberry (in vivo): 25%
[6]; 0.32 mg/disk, 5 days at 21° C.
  Percent (%) Incidence of Botrytis cinerea on Strawberry (in vivo): 0%
[6]; 0.64 mg/disk, 5 days at 21° C.
  Percent (%) Incidence of Botrytis cinerea on Strawberry (in vivo): 0%
[6]; 1.25 mg/disk, 5 days at 21° C.
  Percent (%) Incidence of Botrytis cinerea on Strawberry (in vivo): 0%
[6]; 2.5 mg/disk, 5 days at 21° C.
  Percent (%) Incidence of Botrytis cinerea on Strawberry (in vivo): 0%
[6]; strawberry, 5 days at 21° C.
  lowest rate with 100% control of Botrytis cinerea: 0.32 mg/disk
[6]; strawberry, any of the rates evaluated (2.5 to 0.005 mg/disk)
  appearance of phytotoxicity: no evidence of phytotoxicity
[7]; 10 mg/L
  in vivo volatile inhibition of P. digitatum in orange: complete inhibition
[7]; 0.4 mg/L, Day 0
  Sporulation (mm): 0.7 mm
  Water soaked lesions (mm): 5.7 mm
[7]; 0.4 mg/L, Day 1
  Sporulation (mm): 1.4 mm
  Water soaked lesions (mm): 29.4 mm
[7]; 0.4 mg/L, Day 2
  Sporulation (mm): 8.1 mm
  Water soaked lesions (mm): 49.3 mm
[7]; 0.4 mg/L, Day 3
  Sporulation (mm): 27.2 mm
  Water soaked lesions (mm): 63.4 mm
[7]; 2 mg/L, Day 0
  Sporulation (mm): 0 mm
  Water soaked lesions (mm): 0.5 mm
[7]; 2 mg/L, Day 1
  Sporulation (mm): 0.3 mm
  Water soaked lesions (mm): 7.8 mm
[7]; 2 mg/L, Day 2
  Sporulation (mm): 2.8 mm
  Water soaked lesions (mm): 30.7 mm
[7]; 2 mg/L, Day 3
  Sporulation (mm): 5.7 mm
  Water soaked lesions (mm): 42.6 mm
[7]; 10 mg/L, Day 0
  Sporulation (mm): 0 mm
  Water soaked lesions (mm): 0 mm
[7]; 10 mg/L, Day 1
  Sporulation (mm): 0 mm
  Water soaked lesions (mm): 0 mm
[7]; 10 mg/L, Day 2
  Sporulation (mm): 0 mm
  Water soaked lesions (mm): 0 mm
[7]; 10 mg/L, Day 3
  Sporulation (mm): 0 mm
  Water soaked lesions (mm): 0.8 mm
[7]; 50 mg/L, Day 0
  Sporulation (mm): 0 mm
  Water soaked lesions (mm): 0 mm
[7]; 50 mg/L, Day 1
  Sporulation (mm): 0 mm
  Water soaked lesions (mm): 0 mm
[7]; 50 mg/L, Day 2
  Sporulation (mm): 0 mm
  Water soaked lesions (mm): 0 mm
[7]; 50 mg/L, Day 3
  Sporulation (mm): 0 mm
  Water soaked lesions (mm): 0 mm
[8]; 1 mg/L, volatile fungicide on different hosts
  in vivo antimicrobial control of B. cinerea: 100%
[8]; Blueberry
  Incidence (%): 0.0%
  Severity (0-4): 0.0
[8]; Grape
  Incidence (%): 0.0%
  Severity (0-4): 0.0
[8]; Strawberry
  Incidence (%): 0.0%
  Severity (0-4): 0.0
[9]; 1 mg/L, volatile fungicide
  in vivo antimicrobial control of P. digitatum: 100%
[9]; [11]
  Sporulation (mm): 0.0 mm
  Water soaked lesion: 0.0 mm
[10]; Apple
  Browning (mm): 2.3 mm
  Sporulation (mm): 0.2 mm
[10]; Pear
  Browning (mm): 1.1 mm
  Sporulation (mm): 0.0 mm
